This note sets out measurements from ChEMBL document CHEMBL1201862, “PubChem BioAssay data set” (2004).

Test systems include 786-0; A498; A549; BT-549; EKVX; HCT-116; HT-29; IGROV-1; MOLT-4; NCI-H522; NCI/ADR-RES; OVCAR-4; PC-3; RPMI-8226; SK-MEL-5; SNB-19; SNB-75; TK-10; UACC-257; OVCAR-3.
Common to all, as to test: inhibition of tumour cell growth, NCI panel, 48 h

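Cultured in 96-well plates, cells were exposed to test compound for 48 hours across five concentrations. Abbreviation: GI50, concentration required for 50% inhibition of growth.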 The source made the active and inactive calls. Rule as the data show it: active = GI50 up to about 1.1 µM and inactive = higher. Residues, ends and D or L forms follow the SMILES beside them. *: point of attachment. X38 = O=C(c1ccc(-c2ccc(Cl)cc2Cl)o1)*

Regarding `Nn1c(CCCCCCCCc2nnc(COc3ccc(Cl)cc3Cl)n2N)nnc1COc1ccc(Cl)cc1Cl`, the GI50 in the assay on 786-0 is 63.5 µM (inactive); in the assay on A498, 45.3 µM (inactive); in the assay with A549, 32.7 µM (inactive); with BT-549, 35.9 µM (inactive); in the assay with EKVX, 38.3 µM (inactive); in the assay with HCT-116, 16.7 µM (inactive). For the same compound, the GI50 in the assay with HT-29 was 29.1 µM (inactive); in the assay on IGROV-1, 6.43 µM (inactive); with MOLT-4, 20 µM (inactive); with NCI-H522, 17.3 µM (inactive); in the assay on NCI/ADR-RES, 31.1 µM (inactive); in the assay with OVCAR-4, 46.5 µM (inactive). For the same compound, the GI50 is 31 µM (inactive) in the assay on PC-3; 21.6 µM (inactive) with RPMI-8226; 38.5 µM (inactive) with SK-MEL-5; 30.9 µM (inactive) with SNB-19; > 10 µM (inactive) with SNB-75; 89.9 µM (inactive) with TK-10. The GI50 in the assay on UACC-257 was 61.5 µM (inactive).
Consider `Brc1ccc2c(c1)C1=C(CO2)Cc2ccccc2O1`, for which the GI50 in the assay with 786-0 is 22.7 µM (inactive); in the assay on A498, 27.4 µM (inactive); in the assay with A549 it was 21.6 µM (inactive); with BT-549, 18.2 µM (inactive); in the assay on EKVX it was 20.9 µM (inactive); in the assay with HCT-116 it was 16.4 µM (inactive). For the same compound, the GI50 in the assay on HT-29 was 23.3 µM (inactive); with IGROV-1 it was 12.4 µM (inactive); in the assay on MOLT-4 it was 20 µM (inactive); in the assay with NCI-H522 it was 19.7 µM (inactive); in the assay on NCI/ADR-RES it was 23 µM (inactive); in the assay on OVCAR-3 it was 16.2 µM (inactive). For the same compound, the GI50 with OVCAR-4 is 16.8 µM (inactive); with PC-3, 17.1 µM (inactive); in the assay on RPMI-8226, 18.2 µM (inactive); in the assay on SK-MEL-5, 15 µM (inactive); with SNB-75, 22 µM (inactive); in the assay on TK-10, 20.4 µM (inactive). Further, the GI50 with UACC-257 was 17.9 µM (inactive).
For `O=C1C/C(=N/c2ccc(Cl)cc2)C(c2ccccc2)N1c1ccccc1` (stereo not given), the GI50 in the assay on 786-0 is 38.4 µM (inactive); in the assay on A498, 19.3 µM (inactive); with A549, 17.4 µM (inactive); with BT-549 it was 5.28 µM (inactive); with EKVX it was > 100 µM (inactive); with HCT-116, 8.89 µM (inactive). For the same compound, the GI50 in the assay on HT-29 is 5.62 µM (inactive); with IGROV-1, 18.2 µM (inactive); in the assay with MOLT-4, 7.89 µM (inactive); in the assay on NCI-H522, 1.64 µM (inactive); in the assay with NCI/ADR-RES it was 7.06 µM (inactive); in the assay with OVCAR-3, 2.99 µM (inactive). Further, the GI50 with OVCAR-4 was 14.3 µM (inactive); with PC-3 it was 3.28 µM (inactive); in the assay on RPMI-8226, 2.28 µM (inactive); with SK-MEL-5 it was 5.9 µM (inactive); in the assay on SNB-19, 19.9 µM (inactive); in the assay with TK-10, 23.9 µM (inactive). The GI50 with UACC-257 is 17.4 µM (inactive).
Regarding `C/C=C\C(CC(=O)O)CN1CCC2=C(C1)C(S(=O)(=O)C(F)(F)F)c1ccccc12` (stereo not given), the GI50 in the assay on 786-0, in the assay with A498, in the assay with A549, in the assay with BT-549, in the assay on EKVX and with HCT-116 was > 100 µM (inactive) each time. Further, the GI50 in the assay with HT-29, in the assay on IGROV-1, with MOLT-4, with NCI-H522, in the assay on NCI/ADR-RES and in the assay on OVCAR-3 was > 100 µM (inactive) each time. Moreover, the GI50 in the assay with OVCAR-4, in the assay with PC-3, in the assay on RPMI-8226, with SK-MEL-5, in the assay with SNB-19 and with SNB-75 was > 100 µM (inactive) each time. The GI50 in the assay on UACC-257 was > 100 µM (inactive).
Regarding `Nc1nc(N)c2nc(CNc3ccc(C(=O)NC(CCNC(=O)c4ccccc4C(=O)O)C(=O)O)cc3)cnc2n1` (stereo not given), the GI50 in the assay on 786-0 is 0.01 µM (active); in the assay on A498, 0.054 µM (active); in the assay on A549, 0.01 µM (active); in the assay on BT-549, > 100 µM (inactive); in the assay on EKVX, > 100 µM (inactive); in the assay with HCT-116, 0.00502 µM (active). The GI50 with HT-29 was 0.01 µM (active); with IGROV-1, < 0.0212 µM (active); in the assay on MOLT-4, < 0.0154 µM (active); in the assay with NCI-H522, 0.0897 µM (active); with NCI/ADR-RES, < 0.0173 µM (active); with OVCAR-3, 31.6 µM (inactive). The GI50 in the assay on OVCAR-4 is > 100 µM (inactive); in the assay with PC-3 it was 0.01 µM (active); in the assay with RPMI-8226, 0.083 µM (active); in the assay with SK-MEL-5 it was < 0.0286 µM (active); in the assay with SNB-19, < 0.0434 µM (active); in the assay on TK-10, > 100 µM (inactive).
As for `O=C1CCCC2=C1CC1=C(CCCC1=O)N2c1ccccc1`, the GI50 with 786-0, in the assay with A498, with A549, in the assay on BT-549, in the assay with EKVX and in the assay with HT-29 was > 100 µM (inactive) in each case. Moreover, the GI50 in the assay on IGROV-1, with MOLT-4, in the assay with NCI/ADR-RES, with OVCAR-3, in the assay on OVCAR-4 and with PC-3 was > 100 µM (inactive) each time. Also, the GI50 with RPMI-8226, in the assay on SK-MEL-5, with SNB-19, with SNB-75 and in the assay on TK-10 was > 100 µM (inactive) in each case.
With `CCN(CC)c1nc(N(C)C)c2cc(OC)ccc2n1`, the GI50 is 20.7 µM (inactive) in the assay with 786-0; 32.6 µM (inactive) in the assay on A498; 27.9 µM (inactive) in the assay with A549; 56.4 µM (inactive) with BT-549; 25.1 µM (inactive) with EKVX; 11.2 µM (inactive) in the assay on HCT-116. In addition, the GI50 with HT-29 was 10.2 µM (inactive); in the assay with IGROV-1, 30.8 µM (inactive); in the assay with MOLT-4, 18.5 µM (inactive); with NCI-H522, 14.6 µM (inactive); in the assay on NCI/ADR-RES it was 24.1 µM (inactive); with OVCAR-3, 35.6 µM (inactive). In addition, the GI50 was 43.6 µM (inactive) in the assay on OVCAR-4; 33.2 µM (inactive) in the assay on PC-3; 20.1 µM (inactive) with RPMI-8226; 17.4 µM (inactive) in the assay on SK-MEL-5; 48.6 µM (inactive) in the assay with SNB-19; 34.4 µM (inactive) in the assay on TK-10. The GI50 in the assay with UACC-257 was 24.7 µM (inactive).
As for `CC(=O)Oc1ccccc1-c1cc2ccccc2oc1=O`, the GI50 with 786-0 is > 100 µM (inactive); in the assay with A498 it was > 100 µM (inactive); with A549, > 100 µM (inactive); in the assay with BT-549 it was > 100 µM (inactive); in the assay with EKVX, 63.5 µM (inactive); in the assay on HCT-116, > 100 µM (inactive). Further, the GI50 is > 100 µM (inactive) with HT-29; > 100 µM (inactive) in the assay with MOLT-4; 61.1 µM (inactive) in the assay on NCI-H522; 76.9 µM (inactive) in the assay with NCI/ADR-RES; 22.4 µM (inactive) with OVCAR-3; > 100 µM (inactive) in the assay with PC-3. Moreover, the GI50 is > 100 µM (inactive) in the assay with RPMI-8226, > 100 µM (inactive) with SNB-19, 32.8 µM (inactive) in the assay with SNB-75 and > 100 µM (inactive) in the assay with UACC-257.
As to `Cn1ncc2[nH]cnc2c1=S`, the GI50 in the assay on 786-0, in the assay with A498, in the assay on A549, in the assay with BT-549, in the assay with EKVX and with HCT-116 was > 100 µM (inactive) throughout. Moreover, the GI50 in the assay with HT-29 was 57.7 µM (inactive); in the assay with IGROV-1 it was > 100 µM (inactive); in the assay with MOLT-4, 43.8 µM (inactive); with NCI/ADR-RES it was > 100 µM (inactive); in the assay on OVCAR-3 it was > 100 µM (inactive); in the assay with PC-3, > 100 µM (inactive). The GI50 is 34.8 µM (inactive) in the assay with RPMI-8226; 82.4 µM (inactive) with SK-MEL-5; > 100 µM (inactive) in the assay on SNB-19; 86.1 µM (inactive) in the assay on SNB-75; > 100 µM (inactive) in the assay on TK-10; > 100 µM (inactive) with UACC-257.
In the case of `O=C1c2cc3ccccc3cc2C2(c3ccc(Cl)cc3)N[C@H]3CCCC[C@@H]3N12` (stereo not given in full), the GI50 is 11.2 µM (inactive) in the assay with 786-0; 18.3 µM (inactive) with A498; 9.62 µM (inactive) in the assay with A549; 20 µM (inactive) with BT-549; 10.9 µM (inactive) with EKVX; 5.68 µM (inactive) in the assay on HCT-116. Also, the GI50 in the assay on HT-29 is 14.4 µM (inactive); with IGROV-1, 13.3 µM (inactive); in the assay on MOLT-4 it was 40.4 µM (inactive); in the assay with NCI/ADR-RES it was 14.2 µM (inactive); in the assay with OVCAR-3, 19.4 µM (inactive); in the assay with OVCAR-4 it was 6.34 µM (inactive). Moreover, the GI50 was 14.9 µM (inactive) with PC-3; 18.4 µM (inactive) in the assay on RPMI-8226; 16.7 µM (inactive) in the assay on SK-MEL-5; 13.7 µM (inactive) in the assay with SNB-19; 16.5 µM (inactive) in the assay on SNB-75; 11.7 µM (inactive) with TK-10. Further, in the assay on UACC-257, the GI50 is 19.4 µM (inactive).
In the case of `COC(=O)C(CC(C)C)NC(=O)C(Cc1ccccc1)NC(=O)C1CCCN1C(=O)C(CO)NC(=O)c1ccc(-c2ccc(Cl)cc2Cl)o1` (stereo not given) (X38-SPFL-OMe; configuration not given here), the GI50 with 786-0 was 25.1 µM (inactive); in the assay with A498, 24.5 µM (inactive); in the assay with A549, 26.1 µM (inactive); in the assay with BT-549, 25.6 µM (inactive); with HCT-116, 22.6 µM (inactive); with HT-29, 17.6 µM (inactive). Also, the GI50 in the assay with MOLT-4 is 22.2 µM (inactive); with NCI-H522, 28.1 µM (inactive); in the assay with NCI/ADR-RES, 28.8 µM (inactive); with OVCAR-4 it was 31.2 µM (inactive); with PC-3, 31.6 µM (inactive); with RPMI-8226 it was 17.1 µM (inactive). The GI50 was 17.3 µM (inactive) in the assay with SK-MEL-5; 21.9 µM (inactive) in the assay on SNB-19; 25.7 µM (inactive) with SNB-75; 24.8 µM (inactive) in the assay with TK-10; 20.2 µM (inactive) in the assay on UACC-257.
